Experimental data published in patent US20100190832A1, “Mechanism-based inhibitors of transthyretin amyloidosis: studies with biphenyl ethers and structural templates” (NATIONAL INSTITUTE OF IMMUNOLOGY., priority 2008, published 2010).
Like-named read-outs stand apart in the source and are kept apart here.

What was measured:
[1] = target: T1, TTR (Homo sapiens, UniProt P02766); assay: Time course (kinetics) of fibril formation, turbidity at 340 nm for 3 h; type: biochemical; details: TTR 7.2 μM, inhibitor 21.6 μM, 37° C., pH 4.4, 3 h
T1 construct: made in house
Experimental: Time Course of Fibril Formation. The kinetics of inhibition was studied by incubating […] TTR with […] of different inhibitors in 100 µl of 5 mM phosphate buffer pH 7.2 for 30 min in a 96 microwell plate. […] of 0.2 M sodium acetate buffer pH 4.4 containing 1 mM EDTA and 100 mM KCl was added. The difference in turbidity was assessed by measuring the change in absorbance at 340 nm on Tecan GEnios microplate reader using Magellan software. For kinetics, parameters were set for 30 cycles at 37° C. at the interval of 5 min each and 2 min orbital shaking (low speed) between cycles and 10 sec shaking (normal speed) before measurement. All experiments were performed in triplicates. Change in absorbance at 340 nm was plotted against time in the presence and absence of inhibitors initial rate of fibril formation was calculated from the slope by linear fitting of the data.
All experiments were performed three times in triplicates. Change in absorbance (mean of three different experiments) at 340 nm was plotted against time in the presence and absence of inhibitors. Initial rate of fibril form action was calculated from the value of the slope by linear fitting of the change in absorbance at 340 nm as a function of time.

[2] = target: T2, TTR tetramer (Homo sapiens, UniProt P02766); assay: Urea denaturation (tetramer dissociation, tryptophan fluorescence); type: biochemical; details: TTR 1.8 μM, inhibitor 5.4 μM (1:3), 6 M urea, 25° C., up to […]
T2 construct: made in house

[3] = target: T3, WT-TTR (Homo sapiens, UniProt P02766); assay: Stagnant acid-mediated TTR aggregation (fibril formation) assay, turbidity at 340 nm; type: biochemical; details: for remaining activity at 7.2 µM / remaining activity at 21.6 µM / remaining activity at 50 µM: 72 h; for remaining activity at 50 µM: read-out: % FF at 50 μM; for inhibition of TTR fibrillization: inhibitor 21.6 μM
T3 construct: made in house
Experimental: Stagnant Acid-Mediated TTR Aggregation Assay.
After 1 h, the samples were diluted with 0.5 ml of 200 mM sodium acetate buffer containing 100 mM KCl and 1 mM EDTA. Samples after mild vortexing were incubated at 37° C. for the desired amount of time without stirring to evaluate the efficacy of the inhibitors. The extent of aggregation was probed by turbidity measurements at 340 nm using Tecan GENios microplate reader. […] The extent of TTR fibril formation in the absence of inhibitor was defined to be 100%. […] All experiments were done in triplicate. […] The IC50 was determined by plotting mean of % inhibition vs log and fitted to sigmoid equation:
(§1) The experiments were conducted at 25° C. After 1 h, the samples were diluted with 0.5 mL of 200 mM sodium acetate buffer pH 4.4 containing 100 mM KCl and 1 mM EDTA, vortexed, and incubated at 37° C. for 72 h. […] The stoichiometry of the binding of the inhibitors was determined by HPLC as described by Green et al., N. S. Palaninathan, S, L, Sacchettini, J. e. […] Dissociation constant of binding of these compounds to TTR was determined by fluorescence titration, and data were fitted into the Adair equation for two bind mg.

[4] = target: T1, TTR; assay: Dissociation constant by fluorescence titration (Adair equation, two sites); type: binding
Experimental: as §1
Small aliquots of 1 mM ligands solutions were successively added to the […] in 100 mM sodium acetate buffer pH 4.4 at […] under constant stirring. After each addition sample was left for 2 min. […] Readings were corrected for buffer blank, dilution and inner filter effect. The inner filter effect was corrected by using the following equation,
From the titration data the dissociation constant was determined by fitting data in following Adair equation for two binding sites-

[5] = target: T4, TTR fibers (Homo sapiens, UniProt P02766); assay: Fibril disruption assay; type: biochemical; details: three doses (7.2 μM each), 15 days, Th-T fluorescence
T4 construct: made in house
Experimental: Fibril Disruption Assay. […] The disruption was followed for 7 days by turbidity measurements at 340 nm and Th-T fluorescence. A second dose of the inhibitor (7.2 μM) was added after 24 h of incubation, and samples were incubated and monitored further for 5-6 days. After 15-20 days of incubation, samples were examined by transmission electron microscopy (TEM). All experiments were done thrice in triplicates each time.

[6] = pH 4.4; read-out: Dissociation Constant Kd1
[7] = pH 4.4; read-out: Dissociation Constant Kd2
[8] = 50% reduction in fibril formation, TTR 7.2 μM, pH 4.4, read-out: IC50 ± SE
[9] = biphenyl ether 50 μM, WT-TTR 7.2 μM
[10] = pH 4.4, TTR 7.2 μM, inhibitor 7.2 μM (1:1), pH 4.4, 37° C., no inhibitor = 100%, read-out: % FF 1:1
[11] = pH 4.4, TTR 7.2 μM, inhibitor 21.6 μM (1:3), pH 4.4, 37° C., no inhibitor = 100%, read-out: % FF 1:3
[12] = TTR amyloid formation, 37° C., read-out: IC50
[13] = Table 3, WT-TTR 7.2 μM, read-out: IC50

inhibition at 21.6 µM [1] [%]	protein dissociates (tetramer dissociation) [2] [%]	% FF 1:1 ([3]; TTR 7.2 μM, inhibitor 7.2 μM (1:1), pH 4.4, 37° C., no inhibitor = 100%) [%]	% FF 1:3 ([3]; TTR 7.2 μM, inhibitor 21.6 μM (1:3), pH 4.4, 37° C., no inhibitor = 100%) [%]	Kd [4, 6] [µM]	Kd [4, 7] [µM]	disruption of preformed TTR fibers [5]	IC50 [3, 8] [µM]	remaining activity at 50 µM [3, 9] [%]	remaining activity at 7.2 µM [3, 10] [%]	remaining activity at 21.6 µM [3, 11] [%]	IC50 [3, 12] [µM]	IC50 [3, 13] [µM]	inhibition of TTR fibrillization ([3]; TTR 7.2 μM)	Structure (SMILES)	remaining activity at 7.2 µM ([3]; pH 4.4, read-out: % FF 1:1) [%]	remaining activity at 21.6 µM ([3]; pH 4.4, read-out: % FF 1:3) [%]	remaining activity at 50 µM [3] [%]	inhibition at 21.6 µM ([3]; pH 4.4, read-out: inhibition of fibril formation) [%]	Kd ([4]; read-out: Dissociation Constant Kd2; pH 4.4) [µM]	IC50 [3] [µM]
75	27	48	7	–	–	–	–	–	–	–	–	–	–	N[C@H](Cc1cc(I)c(Oc2cc(I)c(O)c(I)c2)c(I)c1)C(=O)O (stereo in doubt) [Compound 13, thyroxine, reference compound]	–	–	–	–	–	–
> 80	–	–	–	0.0003 ± 0.00014	13.8 ± 1.02	more effective	1.36 ± 0.05	11.5	12	2.6	0.47 to 3.5	1.36	–	OCc1ccc(Oc2ccc(Cl)cc2Cl)c(O)c1 [Compound 4]	–	–	–	–	–	–
> 80	–	–	–	–	–	more effective	–	0	10	0	–	–	–	COc1cc(C(=O)O)ccc1Oc1ccc(Cl)cc1Cl [Compound 6]	–	–	–	–	–	–
> 80	21	–	–	0.027 ± 0.00803	0.003 ± 0.00078	–	2.59 ± 0.14	0	29	13.3	0.47 to 3.5	2.59	–	O=C(O)c1ccc(Oc2ccc(Cl)cc2Cl)c(O)c1 [Compound 7]	–	–	–	–	–	–
> 80	–	–	–	0.088 ± 0.0101	–	more effective	1.31 ± 0.08	0	12	0	0.47 to 3.5	1.31	–	COc1cc(C=O)ccc1Oc1ccccc1 [Compound 9]	–	–	–	–	–	–
> 80	–	–	–	0.042 ± 0.00235	0.0726 ± 0.0103	–	3.1 ± 0.05	–	21	0	0.47 to 3.5	–	completely	Oc1ccccc1-c1nnc(S)o1 [Compound 11]	–	–	–	–	–	–
> 80	–	–	–	0.12 ± 0.0321	–	more effective	1.06 ± 0.01	–	11	3.6	0.47 to 3.5	–	completely	O=C(Nc1nnc[nH]1)c1c(Cl)ccc(Cl)c1Cl [Compound 12]	–	–	–	–	–	–

Structure (SMILES)	inhibition at 21.6 µM [1] [%]	protein dissociates (tetramer dissociation) [2] [%]	% FF 1:1 ([3]; TTR 7.2 μM, inhibitor 7.2 μM (1:1), pH 4.4, 37° C., no inhibitor = 100%) [%]	% FF 1:3 ([3]; TTR 7.2 μM, inhibitor 21.6 μM (1:3), pH 4.4, 37° C., no inhibitor = 100%) [%]	Kd [4, 6] [µM]	Kd [4, 7] [µM]	disruption of preformed TTR fibers [5]	IC50 [3, 8] [µM]	remaining activity at 50 µM [3, 9] [%]	remaining activity at 7.2 µM [3, 10] [%]	remaining activity at 21.6 µM [3, 11] [%]	IC50 [3, 12] [µM]	IC50 [3, 13] [µM]	inhibition of TTR fibrillization ([3]; TTR 7.2 μM)	remaining activity at 7.2 µM ([3]; pH 4.4, read-out: % FF 1:1) [%]	remaining activity at 21.6 µM ([3]; pH 4.4, read-out: % FF 1:3) [%]	remaining activity at 50 µM [3] [%]	inhibition at 21.6 µM ([3]; pH 4.4, read-out: inhibition of fibril formation) [%]	Kd ([4]; read-out: Dissociation Constant Kd2; pH 4.4) [µM]	IC50 [3] [µM]
Oc1cc(Cl)ccc1Oc1ccc(Cl)cc1Cl [Compound 1, Triclosan, reference compound]	62	47	–	–	–	–	–	–	–	–	–	–	–	–	75	66	41	~24	–	–
O=Cc1ccc(Oc2ccc(Cl)cc2Cl)c(O)c1 [Compound 2]	> 80	–	–	–	0.0139 ± 0.00501	–	–	–	–	–	–	–	–	–	–	–	–	–	0.525 ± 0.0601	–
COc1cc(CCl)ccc1Oc1ccc(Cl)cc1Cl [Compound 5]	> 80	–	–	–	–	–	more effective	3.16 ± 0.04	0	26	0	–	3.16	–	–	–	–	–	–	0.47 to 3.5
